Results from article PMC7156612, “Olinciguat, an Oral sGC Stimulator, Exhibits Diverse Pharmacology Across Preclinical Models of Cardiovascular, Metabolic, Renal, and Inflammatory Disease” (Frontiers in Pharmacology, 2020).
Read-outs that look alike come from different tables or passages of the source.

How the values were obtained:
[1] = test system: human subcutaneous resistance arteries; test: Human vascular smooth muscle relaxation (U46619-precontracted arteries); assay type: cell-based; details: for EC50: Homo sapiens
Method: The effect of olinciguat on relaxation of contracted human subcutaneous resistance arteries was determined according to methods described in ([Tobin et al., 2018]). In brief, human subcutaneous resistance arteries were obtained from three donors (females ages 27–51) undergoing elective surgeries. Arteries were mounted in a tissue bath and precontracted with the thromboxane mimetic, U46619 (100 nM). Only tissues containing functional endothelium, as determined by relaxation in response to acetylcholine (10 µM), were used. A cumulative concentration-response curve (0.1 to 10 µM) was generated for olinciguat, followed by addition of the NO donor sodium nitroprusside (100 μM). Percent relaxation at each olinciguat concentration was determined relative to the U46619-mediated contraction. Using GraphPad Prism v.7, a sigmoidal dose-response (variable slope) curve was fit with the bottom value constrained to zero to determine the EC50.

[2] = Olinciguat plasma concentration in hemodynamic study (pooled Wistar and SHR); assay type: in vivo, rat; details: for concentration at 1 h: male, Wistar and SHR (spontaneously hypertensive rat), pooled, rat, plasma, oral, mean and SEM of 6 animals (n=3 Wistar, n=3 SHR), read-out: average plasma concentration 1 h after dosing on Day 4
Method: Blood from i.v. and p.o. dosed rats was collected at 16 timepoints (2 groups of rats, 8 timepoints per group) over 24 h. Samples were collected into potassium ethylenediamine tetraacetic acid (K2EDTA) tubes, centrifuged (3,500 rpm for 10 min) to yield plasma. In the pharmacokinetic studies and in all in vivo studies, olinciguat plasma concentrations were determined by LC-MS/MS. Pharmacokinetic (PK) parameters were calculated by noncompartmental analysis using sparse sampling in Phoenix® WinNonLin® v.6.3 (Certara, Princeton, NJ).
Spontaneously hypertensive rats (SHRs) (n=6, male, 230–250 g, 14 weeks of age) and Wistar rats (n=6, male, 230–250 g, 12 weeks of age) were implanted with telemetry transmitters as described above. Olinciguat was formulated as a suspension in a vehicle containing 0.5% methylcellulose and 0.2% Tween. Rats were p.o. dosed with a dosing volume of 5 ml/kg. In a weekly-dose escalation design, rats were administered vehicle (week 1), olinciguat 1 mg/kg (week 2), 3 mg/kg (week 3), and 10 mg/kg (week 4). For each dose level, rats were dosed once daily (QD) for 4 days. Using plasma from tail vein, olinciguat plasma concentrations were determined at 1, 6, and 24 h post-dose on day 4 and reported as the mean from Wistar (n=3) and SHR (n=3). Hemodynamics were recorded hourly during a 24-h baseline period and over the first 3 days of dosing.

[3] = test system: C57BL/6 mice treated with TNFα; test: Mouse TNFα-induced model of vascular inflammation; assay type: in vivo; details: 10 mg/kg, total plasma concentration x 1.7% free
Method: (§1) Male C57BL/6 mice (n=30, 22 g, 8 weeks) were studied. The TNFα/olinciguat group of mice (n=10) was administered 10 mg/kg olinciguat p.o., formulated in 0.1 ml 100% PEG, followed byintraperitoneal (i.p.) injection of 50 ng of mouse TNFα formulated in 0.5 ml pyrogen-free 0.9% NaCl solution one hour later. The TNFα/vehicle control group of mice (n=10) was treated with p.o. vehicle, followed by i.p. injection of 50 ng of mouse TNFα after one h. A naïve, non-treated control group of mice (n=10) was included in the study. […] Plasma levels of olinciguat were determined by LCMS. Plasma samples were diluted 1:300 for determination of sL-selectin, sP-selectin, sE-selectin, and sICAM-1 by ELISA.
(§2) In the vascular inflammation model, data were analyzed by one-way ANOVA, followed by Dunnett's multiple comparison to the TNFα-vehicle control.

[4] = Mouse TNFα-induced model of vascular inflammation; assay type: in vivo; details: male, C57BL/6, mouse, plasma, po; mice, 10 mg/kg p.o., at euthanasia; read-out: plasma concentration of olinciguat
Method: as §1, §2

EC50 ([1]; Table 2 summary, read-out: Human vascular relaxation EC50, olinciguat concentration (range = 95% CI)): 0.016 to 0.038 µM | EC50 ([1]; pre-contracted with U46619 100 nM, n=3 donors, 95% CI 16 to 38 nM, read-out: EC50, relaxation of pre-contracted arteries): 0.0243 µM | Olinciguat concentration (free) ([2]; 10 mg/kg, pooled samples from Wistar and SHR, total plasma concentration x 1.0% free): 1.6–3.3 nM^a,e | concentration at 1 h ([2]; 1 mg/kg p.o. QD): 57.3 ± 38.7 nM | concentration at 1 h ([2]; 3 mg/kg p.o. QD): 132 ± 30 nM | concentration at 1 h ([2]; 10 mg/kg p.o. QD): 245 ± 86 nM | Olinciguat concentration (free) [3]: 8.2–10.2 nM^f | concentration at 5 h [4]: 544 ± 61 nM
Structure (SMILES): NC(=O)[C@](O)(CNc1nc(-c2cc(-c3ccon3)n(Cc3ccccc3F)n2)ncc1F)C(F)(F)F [olinciguat, (R)-3,3,3-trifluoro-2-(((5-fluoro-2-(1-(2-fluorobenzyl)-5-(isoxazol-3-yl)-1H-pyrazol-3-yl)pyrimidin-4-yl)amino)methyl)-2-hydroxypropanamide]
mean relaxation at 10 μM ([1]; 10 μM olinciguat, relative to U46619-mediated contraction): 94.8%
